Literature values in patent US7879804B2, “Blood pressure lowering peptides in a single enzymatic step” (DSM IP Assets B.V., priority 2004, dated 2011).

Key:
[1] = system: spontaneously hypertensive rats; conditions: Nakamura et al. 1995
ACE = ACE (Homo sapiens, UniProt P12821); conditions: for ACE inhibiting activities: in vitro, as reported in the literature
Chain of ACE (P12821 30-1306, species assumed): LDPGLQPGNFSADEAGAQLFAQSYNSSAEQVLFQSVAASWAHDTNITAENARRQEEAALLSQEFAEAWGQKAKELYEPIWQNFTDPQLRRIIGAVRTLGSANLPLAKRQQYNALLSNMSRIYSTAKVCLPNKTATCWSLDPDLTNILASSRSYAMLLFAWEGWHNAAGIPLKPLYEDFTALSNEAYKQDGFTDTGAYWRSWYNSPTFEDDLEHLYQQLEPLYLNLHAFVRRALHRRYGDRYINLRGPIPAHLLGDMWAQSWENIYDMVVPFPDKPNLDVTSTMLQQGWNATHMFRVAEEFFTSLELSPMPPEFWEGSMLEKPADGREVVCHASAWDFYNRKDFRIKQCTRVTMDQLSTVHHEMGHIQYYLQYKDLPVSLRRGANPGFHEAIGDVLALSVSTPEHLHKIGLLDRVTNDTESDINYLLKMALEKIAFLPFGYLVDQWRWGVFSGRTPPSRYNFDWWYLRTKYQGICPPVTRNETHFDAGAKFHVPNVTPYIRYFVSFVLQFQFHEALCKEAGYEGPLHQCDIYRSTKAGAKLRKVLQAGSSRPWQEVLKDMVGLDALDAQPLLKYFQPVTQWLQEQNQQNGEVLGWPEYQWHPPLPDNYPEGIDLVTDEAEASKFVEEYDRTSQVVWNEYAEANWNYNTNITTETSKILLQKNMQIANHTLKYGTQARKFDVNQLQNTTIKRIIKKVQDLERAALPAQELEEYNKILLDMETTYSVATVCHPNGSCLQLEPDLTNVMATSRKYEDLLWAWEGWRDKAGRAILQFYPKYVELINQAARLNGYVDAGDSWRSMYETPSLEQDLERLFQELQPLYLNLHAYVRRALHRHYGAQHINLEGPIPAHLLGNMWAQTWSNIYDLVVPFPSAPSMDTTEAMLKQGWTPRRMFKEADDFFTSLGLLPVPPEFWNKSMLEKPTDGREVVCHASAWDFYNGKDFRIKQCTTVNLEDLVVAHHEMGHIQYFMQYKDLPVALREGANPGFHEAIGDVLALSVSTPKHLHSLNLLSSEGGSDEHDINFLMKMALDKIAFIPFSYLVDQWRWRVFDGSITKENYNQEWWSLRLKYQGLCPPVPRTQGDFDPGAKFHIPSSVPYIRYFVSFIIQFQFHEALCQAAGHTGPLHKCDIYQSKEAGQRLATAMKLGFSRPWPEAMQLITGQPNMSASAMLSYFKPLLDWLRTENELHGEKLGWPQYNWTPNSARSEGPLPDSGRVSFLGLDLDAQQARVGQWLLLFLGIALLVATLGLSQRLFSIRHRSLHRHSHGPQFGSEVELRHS

ACE inhibiting activities (ACE) | Substance | antihypertensive effects [1] | IC50 (ACE; ACE inhibition, reported by EP 0 583 074) [µM]
Strong | Ile-Pro-Pro [IPP] | confirmed | 
Strong | Leu-Pro-Pro [LPP] |  | 

Substance | ACE inhibiting activities (ACE) | antihypertensive effects [1] | IC50 (ACE; ACE inhibition, reported by EP 0 583 074) [µM]
Val-Pro-Pro [VPP] | Strong | confirmed | 9
